Activity calls are given as the source filed them. The calls are words filed in the database; no cut-off is given here.
How the values were obtained:
KARPAS-299 = assay: Antiproliferative activity against human KARPAS-299 cells assessed as reduction in cell growth incubated for 72 hrs by MTT assay; assay type: functional, cell-based; details: KARPAS-299, 72 h
NCI-H2228 [1] = assay: Antiproliferative activity against human NCI-H2228 cells assessed as reduction in cell growth incubated for 72 hrs by MTT assay; assay type: functional, cell-based; details: NCI-H2228, 72 h
A549 = assay: Antiproliferative activity against human A549 cells assessed as reduction in cell growth incubated for 72 hrs by MTT assay; assay type: functional, cell-based; details: A549, 72 h
MCF7 = assay: Antiproliferative activity against human MCF7 cells assessed as reduction in cell growth incubated for 72 hrs by MTT assay; assay type: functional, cell-based; details: MCF7, 72 h
[2] = biological target: T1, ALK tyrosine kinase receptor (Homo sapiens, UniProt Q9UM73); assay: Inhibition of recombinant human N-terminal GST-tagged ALK (1058 to 1620 residues) expressed in baculovirus expression system using Srctide as substrate incubated for 1 hr by mobility shift assay
[3] = biological target: ALK tyrosine kinase receptor (Homo sapiens, UniProt Q9UM73, L1196M); assay: Inhibition of recombinant human N-terminal GST-tagged ALK L1196M mutant (1058 to 1620 residues) expressed in baculovirus expression system using Srctide as substrate incubated for 1 hr by mobility shift assay
[4] = biological target: ALK tyrosine kinase receptor (Homo sapiens, UniProt Q9UM73, G1202R); assay: Inhibition of recombinant human N-terminal GST-tagged ALK G1202R mutant (1058 to 1620 residues) expressed in baculovirus expression system using Srctide as substrate incubated for 1 hr by mobility shift assay
[5] = biological target: Proto-oncogene tyrosine-protein kinase ROS (Homo sapiens, UniProt P08922); assay: Inhibition of recombinant human N-terminal GST-tagged ROS1 (1883 to 2347 residues) expressed in baculovirus expression system using IRS1 as substrate incubated for 1 hr by mobility shift assay
[6] = biological target: Epidermal growth factor receptor (Homo sapiens, UniProt P00533); assay: Inhibition of recombinant human N-terminal GST-tagged EGFR (669 to 1210 residues) expressed in baculovirus expression system using Srctide as substrate incubated for 1 hr by mobility shift assay
[7] = test system: ALK tyrosine kinase receptor (Homo sapiens), Q9UM73 [L1196M]; assay: Potency index, ratio of IC50 of ceritinib to IC50 of compound for inhibition of recombinant human N-terminal GST-tagged ALK L1196M mutant (1058 to 1620 residues) expressed in baculovirus expression system using Srctide as substrate incubated for 1 hr by mobility shift assay
[8] = test system: ALK tyrosine kinase receptor (Homo sapiens), Q9UM73 [G1202R]; assay: Potency index, ratio of IC50 of ceritinib to IC50 of compound for inhibition of recombinant human N-terminal GST-tagged ALK G1202R mutant (1058 to 1620 residues) expressed in baculovirus expression system using Srctide as substrate incubated for 1 hr by mobility shift assay
[9] = biological target: T1, ALK tyrosine kinase receptor; assay: Inhibition of ALK in human NCI-H2228 cells assessed as reduction in ALK phosphorylation incubated for 24 hrs by Western blot analysis; assay type: cell-based
[10] = biological target: T1, ALK tyrosine kinase receptor; assay: Inhibition of ALK in human NCI-H2228 cells assessed as reduction in ALK phosphorylation at 100 nM incubated for 24 hrs by Western blot analysis relative to control; assay type: cell-based
[11] = biological target: T1, ALK tyrosine kinase receptor; assay: Inhibition of ALK in human NCI-H2228 cells assessed as reduction in Akt phosphorylation at 25 to 100 nM incubated for 24 hrs by Western blot analysis; assay type: cell-based; details: dose 25-100 nM
[12] = biological target: T1, ALK tyrosine kinase receptor; assay: Inhibition of ALK in human NCI-H2228 cells assessed as reduction in Erk phosphorylation at 25 to 100 nM incubated for 24 hrs by Western blot analysis; assay type: cell-based; details: dose 25-100 nM
[13] = biological target: T1, ALK tyrosine kinase receptor; assay: Inhibition of ALK in human NCI-H2228 cells assessed as reduction in Akt expression at 25 to 100 nM incubated for 24 hrs by Western blot analysis; assay type: cell-based; details: dose 25-100 nM
[14] = biological target: T1, ALK tyrosine kinase receptor; assay: Inhibition of ALK in human NCI-H2228 cells assessed as reduction in ERK expression at 25 to 100 nM incubated for 24 hrs by Western blot analysis; assay type: cell-based; details: dose 25-100 nM
NCI-H2228 [15] = assay: Effect on ALK expression in human NCI-H2228 cells at 25 to 100 nM incubated for 24 hrs by Western blot analysis; assay type: functional, cell-based; details: dose 25-100 nM
NCI-H2228 [16] = assay: Induction of apoptosis in human NCI-H2228 cells assessed as morphological changes incubated for 48 hrs by Hoechst-33258 staining based fluorescence microscopic analysis; assay type: functional, cell-based; details: dose 30-120 nM
NCI-H2228 [17] = assay: Induction of apoptosis in human NCI-H2228 cells assessed as morphological changes at 30 nM incubated for 48 hrs by AO-EB staining based fluorescence microscopic analysis; assay type: functional, cell-based
NCI-H2228 [18] = assay: Induction of apoptosis in human NCI-H2228 cells assessed as early apoptotic cells by observing morphological changes of cell at 120 nM incubated for 48 hrs by AO-EB staining based fluorescence microscopic analysis; assay type: functional

Sequence of ALK tyrosine kinase receptor (Homo sapiens, UniProt Q9UM73, G1202R) (Q9UM73 19-1620 G1202R limits assumed): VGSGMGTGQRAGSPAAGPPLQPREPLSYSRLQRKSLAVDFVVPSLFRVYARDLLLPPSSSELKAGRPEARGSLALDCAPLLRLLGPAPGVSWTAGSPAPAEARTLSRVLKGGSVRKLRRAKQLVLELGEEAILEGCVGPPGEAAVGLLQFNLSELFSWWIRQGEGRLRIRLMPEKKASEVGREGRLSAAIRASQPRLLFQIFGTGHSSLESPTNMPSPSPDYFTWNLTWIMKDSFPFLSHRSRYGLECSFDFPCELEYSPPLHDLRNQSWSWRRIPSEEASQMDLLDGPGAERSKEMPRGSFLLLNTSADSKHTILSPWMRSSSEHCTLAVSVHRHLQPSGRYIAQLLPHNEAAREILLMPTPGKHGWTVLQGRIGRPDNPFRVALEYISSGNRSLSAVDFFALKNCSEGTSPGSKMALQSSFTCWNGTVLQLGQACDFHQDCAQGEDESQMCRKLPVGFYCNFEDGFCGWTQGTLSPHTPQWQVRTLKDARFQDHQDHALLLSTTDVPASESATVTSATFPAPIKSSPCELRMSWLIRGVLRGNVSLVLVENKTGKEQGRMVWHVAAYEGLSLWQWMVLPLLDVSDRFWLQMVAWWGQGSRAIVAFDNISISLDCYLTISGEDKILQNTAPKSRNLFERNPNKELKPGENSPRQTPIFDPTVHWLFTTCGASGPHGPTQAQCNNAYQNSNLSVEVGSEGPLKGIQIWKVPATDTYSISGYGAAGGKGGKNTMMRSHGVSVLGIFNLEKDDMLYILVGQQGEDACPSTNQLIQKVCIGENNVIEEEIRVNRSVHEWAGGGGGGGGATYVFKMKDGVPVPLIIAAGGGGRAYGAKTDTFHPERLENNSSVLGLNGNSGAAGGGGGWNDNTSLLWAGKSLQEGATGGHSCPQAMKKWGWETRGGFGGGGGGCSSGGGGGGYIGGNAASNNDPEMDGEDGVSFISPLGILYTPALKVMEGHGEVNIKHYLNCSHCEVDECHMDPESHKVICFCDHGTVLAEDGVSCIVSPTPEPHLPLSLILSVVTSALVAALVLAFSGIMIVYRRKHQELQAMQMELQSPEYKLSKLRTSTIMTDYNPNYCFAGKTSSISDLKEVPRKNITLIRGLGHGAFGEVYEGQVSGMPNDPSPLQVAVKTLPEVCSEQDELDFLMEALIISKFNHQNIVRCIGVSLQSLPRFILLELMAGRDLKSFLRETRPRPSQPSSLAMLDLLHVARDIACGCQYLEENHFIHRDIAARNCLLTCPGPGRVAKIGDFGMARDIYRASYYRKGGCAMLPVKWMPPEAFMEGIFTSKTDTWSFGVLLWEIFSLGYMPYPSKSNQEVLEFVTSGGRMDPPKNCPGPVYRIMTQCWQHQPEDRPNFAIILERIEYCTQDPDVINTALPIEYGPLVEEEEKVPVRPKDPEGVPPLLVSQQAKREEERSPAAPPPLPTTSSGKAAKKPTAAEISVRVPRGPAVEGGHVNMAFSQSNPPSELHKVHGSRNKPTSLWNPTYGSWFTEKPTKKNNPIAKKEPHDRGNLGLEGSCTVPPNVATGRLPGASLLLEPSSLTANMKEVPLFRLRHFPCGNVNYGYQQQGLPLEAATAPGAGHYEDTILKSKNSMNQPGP
Sequence of Proto-oncogene tyrosine-protein kinase ROS (P08922 whole entry, the tested form may be a part): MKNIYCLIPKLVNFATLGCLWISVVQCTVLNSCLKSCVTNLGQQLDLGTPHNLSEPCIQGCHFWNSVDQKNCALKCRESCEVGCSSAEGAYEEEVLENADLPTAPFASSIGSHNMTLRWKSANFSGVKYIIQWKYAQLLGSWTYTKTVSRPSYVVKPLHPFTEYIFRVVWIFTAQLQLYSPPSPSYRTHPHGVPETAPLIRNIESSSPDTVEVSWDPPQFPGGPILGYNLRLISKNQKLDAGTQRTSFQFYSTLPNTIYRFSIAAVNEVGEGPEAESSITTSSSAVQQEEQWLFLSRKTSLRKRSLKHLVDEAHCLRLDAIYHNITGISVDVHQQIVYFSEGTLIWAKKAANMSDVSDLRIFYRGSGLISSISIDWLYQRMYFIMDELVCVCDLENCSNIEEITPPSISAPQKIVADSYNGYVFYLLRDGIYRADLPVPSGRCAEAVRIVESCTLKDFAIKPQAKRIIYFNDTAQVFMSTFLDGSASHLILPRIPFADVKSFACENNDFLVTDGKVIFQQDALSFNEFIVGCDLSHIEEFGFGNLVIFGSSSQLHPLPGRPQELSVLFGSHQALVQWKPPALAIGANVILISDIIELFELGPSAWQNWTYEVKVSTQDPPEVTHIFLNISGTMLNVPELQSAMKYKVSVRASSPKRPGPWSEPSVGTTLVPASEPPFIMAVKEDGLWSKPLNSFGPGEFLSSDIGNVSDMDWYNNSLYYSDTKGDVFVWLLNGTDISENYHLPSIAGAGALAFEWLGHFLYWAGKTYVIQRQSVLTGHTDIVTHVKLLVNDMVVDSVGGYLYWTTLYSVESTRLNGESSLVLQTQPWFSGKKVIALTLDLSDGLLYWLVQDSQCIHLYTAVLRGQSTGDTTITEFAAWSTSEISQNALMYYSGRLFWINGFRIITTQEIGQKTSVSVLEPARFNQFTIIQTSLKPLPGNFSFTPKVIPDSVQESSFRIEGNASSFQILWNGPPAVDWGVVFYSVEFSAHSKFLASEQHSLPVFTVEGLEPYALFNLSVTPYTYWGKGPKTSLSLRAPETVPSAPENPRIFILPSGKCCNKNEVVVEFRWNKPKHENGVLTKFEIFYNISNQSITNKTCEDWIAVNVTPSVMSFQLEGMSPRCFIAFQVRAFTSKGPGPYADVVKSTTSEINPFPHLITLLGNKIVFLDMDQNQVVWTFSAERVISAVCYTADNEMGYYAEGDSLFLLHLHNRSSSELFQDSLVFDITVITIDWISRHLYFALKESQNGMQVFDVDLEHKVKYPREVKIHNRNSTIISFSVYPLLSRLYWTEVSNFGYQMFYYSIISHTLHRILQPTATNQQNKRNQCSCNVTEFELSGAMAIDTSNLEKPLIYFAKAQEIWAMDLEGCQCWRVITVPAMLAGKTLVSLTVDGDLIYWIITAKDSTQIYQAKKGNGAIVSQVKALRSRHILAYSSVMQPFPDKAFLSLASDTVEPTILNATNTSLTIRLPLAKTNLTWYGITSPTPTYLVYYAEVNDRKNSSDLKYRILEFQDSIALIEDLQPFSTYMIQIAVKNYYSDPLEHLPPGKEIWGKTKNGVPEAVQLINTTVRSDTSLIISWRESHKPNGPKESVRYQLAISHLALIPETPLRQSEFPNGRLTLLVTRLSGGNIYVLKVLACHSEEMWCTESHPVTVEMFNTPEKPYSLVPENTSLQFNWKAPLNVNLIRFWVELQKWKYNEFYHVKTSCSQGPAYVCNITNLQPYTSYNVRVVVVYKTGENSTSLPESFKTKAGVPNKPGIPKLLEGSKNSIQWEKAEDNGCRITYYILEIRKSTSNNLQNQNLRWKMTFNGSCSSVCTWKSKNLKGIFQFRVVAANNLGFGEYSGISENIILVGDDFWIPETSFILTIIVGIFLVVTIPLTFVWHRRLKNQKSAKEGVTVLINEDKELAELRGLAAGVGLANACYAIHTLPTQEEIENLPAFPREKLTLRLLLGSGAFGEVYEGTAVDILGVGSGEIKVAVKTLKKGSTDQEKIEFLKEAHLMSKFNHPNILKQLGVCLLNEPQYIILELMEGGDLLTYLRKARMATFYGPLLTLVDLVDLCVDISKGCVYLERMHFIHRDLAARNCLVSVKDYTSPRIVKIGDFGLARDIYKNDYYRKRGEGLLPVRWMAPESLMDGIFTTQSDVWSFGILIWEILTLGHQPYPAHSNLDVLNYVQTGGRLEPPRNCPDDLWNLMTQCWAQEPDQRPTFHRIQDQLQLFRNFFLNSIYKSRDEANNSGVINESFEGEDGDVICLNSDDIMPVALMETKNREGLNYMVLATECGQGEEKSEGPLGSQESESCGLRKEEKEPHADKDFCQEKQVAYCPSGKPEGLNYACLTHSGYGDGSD
Sequence of Epidermal growth factor receptor (P00533 whole entry, the tested form may be a part): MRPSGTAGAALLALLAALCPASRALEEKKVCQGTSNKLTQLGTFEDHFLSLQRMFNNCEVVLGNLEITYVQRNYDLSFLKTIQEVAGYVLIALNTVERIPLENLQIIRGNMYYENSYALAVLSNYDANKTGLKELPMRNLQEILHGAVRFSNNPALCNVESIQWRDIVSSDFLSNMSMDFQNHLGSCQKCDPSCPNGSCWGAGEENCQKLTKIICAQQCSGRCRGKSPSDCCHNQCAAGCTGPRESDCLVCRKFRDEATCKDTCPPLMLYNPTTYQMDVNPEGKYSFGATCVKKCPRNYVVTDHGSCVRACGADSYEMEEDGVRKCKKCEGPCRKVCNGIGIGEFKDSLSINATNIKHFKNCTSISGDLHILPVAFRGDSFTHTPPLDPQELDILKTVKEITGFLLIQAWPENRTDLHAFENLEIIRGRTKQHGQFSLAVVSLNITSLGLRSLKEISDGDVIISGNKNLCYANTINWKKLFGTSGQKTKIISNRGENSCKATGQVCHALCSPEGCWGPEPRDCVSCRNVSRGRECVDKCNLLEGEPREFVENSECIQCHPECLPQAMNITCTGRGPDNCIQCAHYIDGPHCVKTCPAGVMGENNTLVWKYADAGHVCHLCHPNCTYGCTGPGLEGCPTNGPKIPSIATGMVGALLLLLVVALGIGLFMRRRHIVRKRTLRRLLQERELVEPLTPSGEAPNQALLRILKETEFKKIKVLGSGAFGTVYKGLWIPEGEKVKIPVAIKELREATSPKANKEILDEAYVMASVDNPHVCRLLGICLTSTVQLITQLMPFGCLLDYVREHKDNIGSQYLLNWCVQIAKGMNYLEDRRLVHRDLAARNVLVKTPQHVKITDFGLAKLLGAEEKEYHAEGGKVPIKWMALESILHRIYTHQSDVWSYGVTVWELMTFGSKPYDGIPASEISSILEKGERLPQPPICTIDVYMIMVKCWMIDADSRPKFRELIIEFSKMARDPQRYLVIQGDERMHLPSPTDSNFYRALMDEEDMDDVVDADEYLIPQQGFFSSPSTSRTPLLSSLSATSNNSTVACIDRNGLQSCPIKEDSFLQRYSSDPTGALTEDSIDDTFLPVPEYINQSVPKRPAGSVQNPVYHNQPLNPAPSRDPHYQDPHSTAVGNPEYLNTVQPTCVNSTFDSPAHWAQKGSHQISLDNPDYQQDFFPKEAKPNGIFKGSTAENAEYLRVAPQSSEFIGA

Structure (SMILES) | IC50 (KARPAS-299) | IC50 (NCI-H2228 [1]) | IC50 (A549) | IC50 (MCF7) | other results
COc1cc(S(=O)(=O)Cc2ccco2)ccc1Nc1ncc(Cl)c(Nc2ccccc2NS(C)(=O)=O)n1 | 1230 nM | 1700 nM | > 10000 nM | > 10000 nM | 
COc1cc(S(=O)(=O)Cc2ccco2)ccc1Nc1ncc(Cl)c(Nc2ccccc2NC(C)=O)n1 | 2410 nM | 3790 nM | > 10000 nM | > 10000 nM | 
COc1cc(NCc2ccc(CN3CCCCC3)o2)ccc1Nc1ncc(Cl)c(Nc2ccccc2NS(C)(=O)=O)n1 | 280 nM | 350 nM | 2360 nM | > 10000 nM | 
COc1cc(SCc2ccc(CN3CCCC3)o2)ccc1Nc1ncc(Cl)c(Nc2ccccc2NS(C)(=O)=O)n1 | 70 nM | 140 nM | > 10000 nM | 2810 nM | IC50 [2]: 3.4 nM; IC50 [3]: 2.8 nM; IC50 [4]: 3.9 nM; IC50 [5]: 4.2 nM; IC50 [6]: > 1000 nM
COc1cc(NCc2ccc(CN(C)C)o2)ccc1Nc1ncc(Cl)c(Nc2ccccc2NS(C)(=O)=O)n1 | 200 nM | 520 nM | 3040 nM | > 10000 nM | 
COc1cc(OCC2CCCO2)ccc1Nc1ncc(Cl)c(Nc2ccccc2NS(C)(=O)=O)n1 (stereo not given) | 190 nM | 90 nM | > 10000 nM | > 10000 nM | IC50 [2]: 3 nM; IC50 [3]: 3.3 nM; IC50 [4]: 2.1 nM; IC50 [5]: 3.7 nM; IC50 [6]: > 1000 nM
COc1cc(SCc2ccc(CN3CCN(C)CC3)o2)ccc1Nc1ncc(Cl)c(Nc2ccccc2NS(C)(=O)=O)n1 | 140 nM | 480 nM | > 10000 nM | > 10000 nM | 
CCN(CC)Cc1ccc(CNc2ccc(Nc3ncc(Cl)c(Nc4ccccc4NS(C)(=O)=O)n3)c(OC)c2)o1 | 350 nM | 570 nM | 3560 nM | > 10000 nM | 
COc1cc(SCc2ccc(CN3CCOCC3)o2)ccc1Nc1ncc(Cl)c(Nc2ccccc2NS(C)(=O)=O)n1 | 150 nM | 430 nM | 920 nM | > 10000 nM | 
Cc1cc(Nc2ncc(Cl)c(Nc3ccccc3S(=O)(=O)C(C)C)n2)c(OC(C)C)cc1C1CCNCC1 [CERITINIB] | 80 nM |  |  | > 10000 nM | 
CCN1CCN(Cc2ccc(CNc3ccc(Nc4ncc(Cl)c(Nc5ccccc5NS(C)(=O)=O)n4)c(OC)c3)o2)CC1 | 400 nM | 720 nM | > 10000 nM | > 10000 nM | 
COc1cc(NCc2ccc(CN3CCCC3)o2)ccc1Nc1ncc(Cl)c(Nc2ccccc2NS(C)(=O)=O)n1 | 350 nM | 420 nM | > 10000 nM | > 10000 nM | 
COc1cc(NCc2ccc(CN3CCN(C)CC3)o2)ccc1Nc1ncc(Cl)c(Nc2ccccc2NS(C)(=O)=O)n1 | 360 nM | 480 nM | > 10000 nM | > 10000 nM | 
COc1cc(NCc2ccco2)ccc1Nc1ncc(Cl)c(Nc2ccccc2NS(C)(=O)=O)n1 | 980 nM | 1580 nM | > 10000 nM | > 10000 nM | 
COc1cc(NCc2ccc(CN3CCN(CCO)CC3)o2)ccc1Nc1ncc(Cl)c(Nc2ccccc2NS(C)(=O)=O)n1 | 870 nM | 990 nM | > 10000 nM | > 10000 nM | 
COc1cc(OCc2ccco2)ccc1Nc1ncc(Cl)c(Nc2ccccc2NS(C)(=O)=O)n1 |  | 1590 nM | > 10000 nM | > 10000 nM | 
COc1cc(NCc2ccc(CN3CCSCC3)o2)ccc1Nc1ncc(Cl)c(Nc2ccccc2NS(C)(=O)=O)n1 | 1020 nM | 1600 nM | > 10000 nM | > 10000 nM | 
COc1cc(SCc2ccc(CN3CCC(C)CC3)o2)ccc1Nc1ncc(Cl)c(Nc2ccccc2NS(C)(=O)=O)n1 | 120 nM | 200 nM | > 10000 nM | > 10000 nM | 
COc1cc(SCc2ccc(CN3CCN(CCO)CC3)o2)ccc1Nc1ncc(Cl)c(Nc2ccccc2NS(C)(=O)=O)n1 | 510 nM | 820 nM | > 10000 nM | > 10000 nM | 
COc1cc(SCc2ccc(CN(C)C)o2)ccc1Nc1ncc(Cl)c(Nc2ccccc2NS(C)(=O)=O)n1 | 20 nM | 110 nM | > 10000 nM | > 10000 nM | IC50 [2]: 2.8 nM; IC50 [3]: 2.6 nM; IC50 [4]: 3.8 nM; IC50 [5]: 2.3 nM; IC50 [6]: > 1000 nM; Ratio IC50 [7]: 5; Ratio IC50 [8]: 5; inhibition [9]: Dose-dependent effect; inhibition [10]: 100%; inhibition [11]: Active; inhibition [12]: Active; inhibition [13]: Active; inhibition [14]: Active; Activity (NCI-H2228 [15]): Active; Activity (NCI-H2228 [16]): Dose-dependent effect; Activity (NCI-H2228 [17]): Active; Activity (NCI-H2228 [18]): Active
COc1cc(SCc2ccc(CN3CCSCC3)o2)ccc1Nc1ncc(Cl)c(Nc2ccccc2NS(C)(=O)=O)n1 | 660 nM | 860 nM | > 10000 nM | > 10000 nM | 
COc1cc(NCC2CCCO2)ccc1Nc1ncc(Cl)c(Nc2ccccc2NS(C)(=O)=O)n1 (stereo not given) | 250 nM | 140 nM | 800 nM | > 10000 nM | IC50 [2]: 3.2 nM; IC50 [3]: 5.8 nM; IC50 [4]: 4.5 nM; IC50 [5]: 4.6 nM; IC50 [6]: > 1000 nM
COc1cc(SCc2ccc(CN3CCCCC3)o2)ccc1Nc1ncc(Cl)c(Nc2ccccc2NS(C)(=O)=O)n1 | 350 nM | 500 nM | 3920 nM | > 10000 nM | 
COc1cc(NCc2ccc(CN3CCC(C)CC3)o2)ccc1Nc1ncc(Cl)c(Nc2ccccc2NS(C)(=O)=O)n1 | 620 nM | 530 nM | > 10000 nM | > 10000 nM | 
COc1cc(SCc2ccco2)ccc1Nc1ncc(Cl)c(Nc2ccccc2NS(C)(=O)=O)n1 | 820 nM | 1360 nM | > 10000 nM | > 10000 nM | 
CCN1CCN(Cc2ccc(CSc3ccc(Nc4ncc(Cl)c(Nc5ccccc5NS(C)(=O)=O)n4)c(OC)c3)o2)CC1 | 280 nM | 670 nM | > 10000 nM | > 10000 nM | 
COc1cc(NCc2ccc(CN3CCOCC3)o2)ccc1Nc1ncc(Cl)c(Nc2ccccc2NS(C)(=O)=O)n1 | 230 nM | 320 nM | > 10000 nM | > 10000 nM | 
CCN(CC)Cc1ccc(CSc2ccc(Nc3ncc(Cl)c(Nc4ccccc4NS(C)(=O)=O)n3)c(OC)c2)o1 | 180 nM | 340 nM | > 10000 nM | > 10000 nM | 
COc1cc(NCc2ccco2)ccc1Nc1ncc(Cl)c(Nc2ccccc2NC(C)=O)n1 | 2470 nM | 3540 nM | > 10000 nM | > 10000 nM | 

From ChEMBL document CHEMBL4732205, “Structure-based optimization identified novel furyl-containing 2,4-diarylaminopyrimidine analogues as ALK/ROS1 dual inhibitors with anti-mutation effects” (Eur J Med Chem, 2021)
